According to US6583127B1, “Use of etherlysophospholipids as antiinflammatory agents” (Inkeysa. SA, priority 1998, dated 2003):
One block for each compound: values may come before it.

What was measured:
[1] = tested on: bentonite-induced skin edema in mice; test: Bentonite-induced skin edema in mice; type: in vivo; details: for Area (area below the curve of difference between right and left pad diameter) / Inhibition of the inflammatory process: mice; for Inhibition of the inflammatory process: versus inflamed control
Description: Mice were individually identified with an ear code and were kept in groups of 6 per cage (Makrolon: 47.6×22.7×14.5 cm). Each cage was individually labelled with the n^o. of the study, type of treatment, doses used and route of administration, as well as the name of the director of the study, number and gender of contained animals, date of arrival and of the beginning of the experiment.
The animals had free access to mouse standard chow (UAR A04C; Usine d'Alimentation Rationelle, 91360-Villemoisson sur Orge, Francia; lot nos. 70520 and 70722). Drinking water access was ad libitum. The water, supplied by the Compañia de Aguas de Sabadell, S.A., is routinely analysed for the presence of possible contaminants. The temperature in the animal rooms was 22±3° C., with sporadic peaks of 26° C.; air humidity was 60±10%, with sporadic peaks of 80%. Daily light (between 7:00 h and 19:00 h) and dark phases were installed automatically.
Upon arrival, all animals were allowed to rest in the facilities for 8 days before use in the experiment. Table 2 indicates the six random groups of 10 mice each were set for experimentation.
The diameter of both hind pads of all mice was measured at day 0 and set as the basal value. Edema was then induced by injecting s.c. 13.3 mg/ml bentonite in 0.03 ml PBS into the right food pad. The corresponding mice were given daily the different compounds orally for 21 days. The inflamed control group was given 0.2 ml PBS only. The diameter of hind pads, as well as the body weight, was then measured every other day.
In each experimental group the average value, the standard deviation (SD) and the standard error was determined for the two parameters studied (hind pad diameter and body weight). The factor variance analysis (FVA) was used to compare the values obtained in the different groups. Where statistically significant differences were observed, the Duncan-Kramer test for a p<0.05 was applied.
The area below the curves corresponding to the diameters of the right and left pads was calculated and the evolution of the difference between them were plotted (FIGS. 7 and 8). The anti-inflammatory capacity of the different substances was evaluated as the extent of inhibition of the inflammatory process that was calculated with the formula [formula]
where C is the area below the inflammed control group and T the area below the different treatment groups.

[2] = tested on: PGE2 production in murine fibroblasts 3T3; test: PGE2 measurement in 3T3 cells (enzyme immunoassay); type: cell-based, Mouse; details: for pg PGE2 (intracellular): 3T3 cells, 20 min at 37° C., Control 112 ± 21; for effect on PGE2 production (in words): 3T3 fibroblasts, ionomycin-induced PGE2
Protocol: Cell culture. Human promyelocytic HL-60 cells and promonocytic U937 cells were grown in RPMI-1640 culture medium supplemented with 10% (v/v) heat-inactivated fetal calf serum, 2 mM L-glutamine, 100 units/ml penicillin and 24 μg/ml gentamicin. Mouse 3T3 fibroblasts were grown in Dulbecco's modified Eagle's medium (DMEM) supplemented with 10% (v/v) heat-inactivated fetal calf serum, 2 mM L-glutamine, 100 units/ml penicillin and 24 μg/ml gentamicin. Cells were incubated at 37° C. in a humidified atmosphere at 5% CO2 and 95% air.
Prostaglandin E2 (PGE2) measurement. 3T3 cells (1.5×10^5 in 100 μl in complete DMEM culture medium) were incubated overnight at 37° C. (5% CO2) in 96-well microtitre plates (tissue-culture grade). Then, the distinct agents were added in 100 μl complete DMEM culture medium for 20 min at 37° C. After washing thoroughly the cells with PBS, cells were lysed and intracellular PGE2 was measured using an enzyme immunoassay kit (Amersham Pharmacia Biotech, Buckinghamshire, UK) following the manufacturer's instructions. Data obtained in duplicate measurements were converted into actual amounts of PGE2 using a calibration curve run in parallel with defined amounts of PGE2.

[3] = tested on: experimental colitis induced by TNB (2,4,6-trinitrobenzenesulphonic acid); test: Rat model of experimental colitis induced by TNB, macroscopic evaluation; type: in vivo; design: Wet Weight (colon): unit not given beside the values; details: Wistar rat, 2.5 mg/Kg p.o.; for Wet Weight (colon) / Sample 2 × 6 mm / Score (0-10) / Weight/mm: Mean ± SEM
Protocol: The therapeutic potential for the treatment of ulcerative colitis of IEC01 at 2.5 and 5 mg/kg and IES01 at 2.5 mg/kg, was evaluated after their administration by oral route during 14 days (7 days of preventive treatment and 7 days of therapeutic treatment) using the rat model of experimental colitis induced by TNB (2,4,6-trinitrobenzenesulphonic acid). As reference parameters, the body weight, wet colon weight and score macroscopic evaluation were evaluated after 24 hours and after 7 days of the intraluminal administration of TNB in the colon. […] The inflammatory response is recognised by the presence of ulcerative fissures, faecal shatters and inflammation of bowel wall. A chronic inflammatory response was observed 7 days after the administration. An erratic response with lineal or punctual ulcers, necrosis, faecal shatters, reduction of colonic lumen, granulomas and peritoneal adherence was observed.

[4] = Body weight evaluation in the TNB colitis rat model; type: in vivo; details: Wistar rat, 2.5 mg/Kg p.o.; Mean ± SEM
Protocol: The therapeutic potential for the treatment of ulcerative colitis of IEC01 at 2.5 and 5 mg/kg and IES01 at 2.5 mg/kg, was evaluated after their administration by oral route during 14 days (7 days of preventive treatment and 7 days of therapeutic treatment) using the rat model of experimental colitis induced by TNB (2,4,6-trinitrobenzenesulphonic acid). As reference parameters, the body weight, wet colon weight and score macroscopic evaluation were evaluated after 24 hours and after 7 days of the intraluminal administration of TNB in the colon.

[5] = tested on: PGE2 synthesis in human mucosal gastric biopsies; test: Ex vivo PGE2 synthesis in human mucosal gastric biopsies; details: for pg PGE2/mg (weight): human mucosal gastric biopsies, agents 10 μM, 20 min at 37° C., Control 115 ± 26, mean ± S.D., three experiments
Protocol: The ability of the gastric mucosa to generate prostaglandins estimates total cyclooxygenase (COX) activity (COX-1 plus any COX-2). To measure ex vivo prostaglandin E2 (PGE2) synthesis, normal gastric mucosal biopsies were immediately placed in Ependorff tubes containing phosphate-buffered saline (PBS). […] Each mucosal gastric biopsy was cut into different pieces (about 1 mg weight) that were subsequently weighed and incubated in the absence or in the presence of the distinct agents indicated in the corresponding Table for 20 min at 37° C. in 200 μl Hepes-glucose buffer. Then cells were mucosal gastric samples were pelleted by centrifugation, lysed and intracellular PGE2 was measured using an enzyme immunoassay kit (Amersham Pharmacia Biotech, Buckinghamshire, UK) following the manufacturer's instructions. Prostaglandin synthesis is expressed as picograms of PGE2 synthesised per mg of tissue incubation. Each experiment corresponded to the use of one biopsy, in order to avoid variability among different biopsies. Normal volunteers without a previous pharmacological treatment were selected for these assays. The normal gastroduodenal mucosa was visually assessed by endoscopy.
Human mucosal gastric biopsies were cut into about 1 mg pieces, incubated with the indicted agents (10 μM) for 20 min at 37° C. in Hepes-glucose buffer, and then the intracellular content of PGE2 was determined as described in the Methods section. Untreated control samples were run in parallel. Data are shown as mean Values+S.D. from three independent experiments.

CD11b = test: Cell surface expression of CD11b in human neutrophils (immunofluorescence flow cytometry); type: cell-based; details: 10 ng/ml, rMFI=(MFIagent×100)/MFImedium, Medium = 100
Description: (§1) Isolation and treatment of neutrophils.
(§2) Monoclonal antibodies. […] The antibodies are commercially available.
(§3) Immunofluorescence flow cytometry. […] Results were expressed as relative MFI (rMFI), such that
(§4) rMFI=(MFIagent×100)/MFImedium
(§5) Background fluorescence was substracted from all values.

CD43 = test: Cell surface expression of CD43 in human neutrophils (immunofluorescence flow cytometry); type: cell-based; details: 10 ng/ml, Medium = 100
Description: as §1, §2, §3, §4, §5

CD44 = test: Cell surface expression of CD44 in human neutrophils (immunofluorescence flow cytometry); type: cell-based; details: 10 ng/ml, Medium = 100
Description: as §1, §2, §3, §4, §5

L-selectin (CD62L) [6] = test: Cell surface expression of L-selectin in human neutrophils (immunofluorescence flow cytometry); type: cell-based
Description: as §1, §2, §3, §4, §5

HLA = details: human neutrophils, 10 ng/ml; Medium = 100
Protocol: Isolation and treatment of neutrophils. Human neutrophils were obtained from fresh peripheral blood by dextran sedimentation and centrifugation on Ficoll-Hypaque followed by hypotonic lysis of residual erythrocytes. […] Cells were resuspended at 3×10^6 neutrophils/ml in HEPES/glucose buffer (150 mM NaCl, 5 mM KCl, 10 mM HEPES, 1.2 mM MgCl2, 1.3 mM CaCl2, 5.5 mM glucose, pH 7.5), and incubated in the absence or presence of distinct agents at 37° C. for the times indicated in the respective legends to figures. Subsequently, cells were pelleted by centrifugation and saved to determine the content of different cell surface antigens by flow cytometry.
Monoclonal antibodies. The following monoclonal antibodies were used: TS1/11 anti-CD11a, Bear-1 anti-CD11b, TP1/36.1 anti-CD43, HP2/9 anti-CD44, Leu-8 anti-L-selectin, and W6/32, specific for a monomorphic determinant on HLA-A, B molecules. P3X63 myeloma culture supernatant was used as a negative control. The antibodies are commercially available.
Immunofluorescence flow cytometry. Immunofluorescence flow cytometry analysis was performed in a FACStar-Plus and a FACScan flow cytometers (Becton-Dickinson). Neutrophils were incubated at 4° C. with the corresponding monoclonal antibody followed by washing and labelling with a fluorescein isothiocyanate (FITC)-labelled-goat anti-mouse IgG antibody (DAKO, Glostrup, Denmark). Mean fluorescence intensity (MFI) in linear scale was obtained from at least 7000 cells in each sample, and the fluorescence produced by the myeloma P3X63 supernatant was considered as background. Results were expressed as relative MFI (rMFI), such that
as §4, §5

CD11a = test: Cell surface expression of CD11a in human neutrophils (immunofluorescence flow cytometry); type: cell-based; details: 10 ng/ml, Medium = 100
Description: as §1, §2, §3, §4, §5

L-selectin (CD62L) [7] = details: literature value, González-Alvaro et al., J. Rheumatol., 23, 723 (1996); cited from earlier work
[8] = 2.5 mg/kg orally daily for 21 days
[9] = 5 mg/kg orally daily for 21 days
[10] = after 24 hours of intraluminal administration
[11] = after 7 days of intraluminal administration
[12] = 2 mg/kg orally daily for 21 days

SMILES: CCCCCCCCCCCCCCCCOCC(COP(=O)(O)OCC(N)C(=O)O)OC (stereo not drawn) [IES01]
- times more efficient in inhibiting inflammation than indomethacin, at the molecular level ([1]; 2.5 mg/kg versus indomethacin 2 mg/kg, taking molecular weights into account): 3.8 times
- Area (area below the curve of difference between right and left pad diameter) [1, 8]: 4.4 ± 0.63 A.U.
- Inhibition of the inflammatory process [1, 8]: 43.8%
- Area (area below the curve of difference between right and left pad diameter) [1, 9]: 5.6 ± 0.70 A.U.
- Inhibition of the inflammatory process [1, 9]: 28.3%
- pg PGE2 (intracellular) ([2]; 10 μM): 192 ± 25 pg
- effect on PGE2 production (in words) [2]: no significant inhibition
- % (inhibition, Sample 2 × 6 mm) [3, 10]: 80.2%
- % (inhibition, Score) [3, 10]: 65.7%
- % (inhibition, Weight/mm) [3, 10]: 75.2%
- % (inhibition, Wet Weight) [3, 10]: 75.3%
- Wet Weight (colon) ([3]; after 24 hours of intraluminal administration in the colon): 1.425 ± 0.20
- Sample 2 × 6 mm [3, 10]: 272.70 ± 44.43 mg
- Score (0-10) [3, 10]: 3.2 ± 0.86
- Weight/mm [3, 10]: 0.158 ± 0.02
- % (inhibition, Sample 2 × 6 mm) [3, 11]: 31.7%
- % (inhibition, Weight/mm) [3, 11]: 11.1%
- % (inhibition, Wet Weight) [3, 11]: 11.1%
- Wet Weight (colon) ([3]; after 7 days of intraluminal administration in the colon): 1.365 ± 0.24
- % (inhibition, Score) ([3]; after 7 days of intraluminal administration, 2.5 mg/kg): 50%
- Sample 2 × 6 mm [3, 11]: 185.04 ± 23.18 mg
- Score (0-10) [3, 11]: 2.0 ± 0.84
- Weight/mm [3, 11]: 0.151 ± 0.03
- Body weight DAY 1 [4]: 232.3 ± 2.68 g
- Body weight DAY 2 [4]: 234.5 ± 2.94 g
- Body weight DAY 4 [4]: 241.9 ± 2.40 g
- Body weight DAY 7 [4]: 211.4 ± 2.48 g
- Body weight DAY 8 [4]: 218.8 ± 3.57 g
- Body weight DAY 11 [4]: 244.4 ± 4.95 g
- Body weight DAY 12 [4]: 250.0 ± 4.72 g
- Body weight DAY 13 [4]: 249.8 ± 6.84 g
- Body weight DAY 14 [4]: 254.0 ± 8.44 g

SMILES: COc1ccc2c(c1)c(CC(=O)O)c(C)n2C(=O)c1ccc(Cl)cc1 [Indomethacin, reference compound]
- Area (area below the curve of difference between right and left pad diameter) [1, 12]: 6.6 ± 0.92 A.U.
- Inhibition of the inflammatory process [1, 12]: 15.3%
- pg PGE2 (intracellular) ([2]; 50 μM): 4 ± 2 pg
- effect on PGE2 production (in words) [2]: almost completely inhibited
- pg PGE2/mg (weight) [5]: 7 ± 2 pg PGE2/mg
- effect on mucosal PGE2 synthesis (in words) ([5]; normal mucosal gastric biopsies, ex vivo): completely blocked

SMILES: C[C@H](CCC(=O)O)C[C@H](C)C[C@H](C)C(=O)/C=C(\O)[C@H](C)C[C@H](C)C/C=C/[C@@H](C)[C@@H](O)[C@@H](C)[C@@H](O)C[C@@H]1CC[C@@](C)([C@H]2CC[C@@](C)([C@@H](C)O)O2)O1 [Ionomycin, reference compound]
- pg PGE2 (intracellular) ([2]; 50 μM): 486 ± 38 pg
- pg PGE2/mg (weight) [5]: 308 ± 31 pg PGE2/mg

SMILES: CCCCCCCCCCCCCC(=O)O[C@@H]1[C@@H](C)[C@@]2(O)[C@@H](C=C(CO)C[C@]3(O)C(=O)C(C)=C[C@@H]23)[C@@H]2C(C)(C)[C@]12OC(C)=O [PMA, reference compound]
- CD11b cell surface expression (rMFI) (CD11b): 272 ± 22
- CD43 cell surface expression (rMFI) (CD43): 33.5 ± 9
- CD44 cell surface expression (rMFI) (CD44): 49.5 ± 11
- L-Selectin cell surface expression (rMFI) (L-selectin (CD62L) [6]; human neutrophils, 10 ng/ml, Medium = 100): 38 ± 7
- HLA cell surface expression (rMFI) (HLA): 96 ± 7
- CD11a cell surface expression (rMFI) (CD11a): 95 ± 8

- IC50 (L-selectin (CD62L) [6]; converted from μg/ml values, read-out: IC50 for L-selectin down-regulation, corrected for molecular weight): 14.1 µM
SMILES: O=C(O)COC(=O)Cc1ccccc1Nc1c(Cl)cccc1Cl [aceclofenac, reference compound]
- IC50 for L-selectin down-regulation (L-selectin (CD62L) [7]): 5 mg/L
